# Assay results: paper PMC9050923, “6,N^2-Diaryl-1,3,5-triazine-2,4-diamines: synthesis, antiproliferative activity and 3D-QSAR modeling” (RSC Advances, 2020)
# Key:
# SKBR-3 = experiment: MTT assay, SKBR-3 breast cancer cells; type: cell-based; details: Homo sapiens, SK-BR-3; 10 μM, 72 h after the treatment, MTT, mean of three independent experiments; read-out: Percentage of cell viability SKBR-3
# Procedure, shortened: (§1)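 Cells seeded 24 h at 37 °C, 5% CO2, then treated 72 h with a concentration range; single-point screen at 10 μM gave % viability. MTT (0.5 mg/mL, 4 h), DMSO-solubilised, A570; GI50 from sigmoidal curves, mean of three experiments.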
# MDA-MB231 = experiment: MTT assay, MDA-MB231 breast cancer cells; type: cell-based; details: Homo sapiens, MDA-MB-231; for viability at 10 µM: 72 h after the treatment, MTT, mean of three independent experiments, read-out: Percentage of cell viability MDA-MB231
# Procedure, shortened: as §1
# MCF-7 = experiment: MTT assay, MCF-7 breast cancer cells; type: cell-based; details: Homo sapiens, MCF7, 10 μM, 72 h after the treatment, mean of three independent experiments, read-out: Percentage of cell viability MCF-7
# Procedure, shortened: as §1
Compound,melting point,"GI50 (MDA-MB231; −log[GI50], MDA-MB231, read-out: Experimental pGI50 (converted))",viability at 10 µM (SKBR-3),viability at 10 µM (MDA-MB231),viability at 10 µM (MCF-7)
"Nc1nc(Nc2ccccc2Cl)nc(-c2ccccc2)n1 (hydrate or solvate) [Compound 4, N ^2-(2-Chlorophenyl)-6-phenyl-1,3,5-triazine-2,4-diamine]",82 to 84 °C,–,–,–,–
"Cc1cccc(-c2nc(N)nc(Nc3ccc(F)cc3)n2)c1 (hydrate or solvate) [Compound 53, N ^2-(4-Fluorophenyl)-6-(3-methylphenyl)-1,3,5-triazine-2,4-diamine]",138 to 139 °C,–,–,–,–
"COc1ccc(Nc2nc(N)nc(-c3cccc(C)c3)n2)cc1 (hydrate or solvate) [Compound 57, N ^2-(4-Methoxyphenyl)-6-(3-methylphenyl)-1,3,5-triazine-2,4-diamine]",150 to 152 °C,–,–,–,–
"Cc1cccc(-c2nc(N)nc(Nc3ccc(C(C)C)cc3)n2)c1 (hydrate or solvate) [Compound 59, N ^2-(4-Isopropylphenyl)-6-(3-methylphenyl)-1,3,5-triazine-2,4-diamine]",134 to 136 °C,–,–,–,–
"Nc1nc(Nc2ccccc2F)nc(-c2ccccc2)n1 [Compound 2, N ^2-(2-Fluorophenyl)-6-phenyl-1,3,5-triazine-2,4-diamine]",156 to 158 °C,–,83%,82%,99%
"Nc1nc(Nc2ccc(F)cc2)nc(-c2ccccc2)n1 [Compound 3, N ^2-(4-Fluorophenyl)-6-phenyl-1,3,5-triazine-2,4-diamine]",172 to 174 °C,–,84%,81%,100%
"COc1ccc(Nc2nc(N)nc(-c3ccc(F)cc3)n2)cc1 [Compound 30, 6-(4-Fluorophenyl)-N^2-(4-methoxyphenyl)-1,3,5-triazine-2,4-diamine]",158 to 160 °C,–,90%,74%,92%
"Nc1nc(Nc2ccccc2)nc(-c2ccc(Cl)cc2)n1 [Compound 34, 6-(4-Chlorophenyl)-N^2-phenyl-1,3,5-triazine-2,4-diamine]",154 to 156 °C,–,100%,81%,100%
"COc1ccc(Nc2nc(N)nc(-c3ccc(OC)cc3)n2)cc1 [Compound 71, N ^2,6-Bis(4-methoxyphenyl)-1,3,5-triazine-2,4-diamine]",163 to 165 °C,14.1 µM,93%,56%,95%

# More lines, main results first:
melting point,"GI50 (MDA-MB231; −log[GI50], MDA-MB231, read-out: Experimental pGI50 (converted))",Compound,viability at 10 µM (SKBR-3),viability at 10 µM (MDA-MB231),viability at 10 µM (MCF-7)
165 to 167 °C,–,"Nc1nc(Nc2ccccc2F)nc(-c2cccs2)n1 (hydrate or solvate) [Compound 116, N ^2-(2-Fluorophenyl)-6-(thiophen-2-yl)-1,3,5-triazine-2,4-diamine]",–,–,–
139 to 141 °C,–,"COc1ccc(Nc2nc(N)nc(-c3cccs3)n2)cc1 (hydrate or solvate) [Compound 123, N ^2-(4-Methoxyphenyl)-6-(thiophen-2-yl)-1,3,5-triazine-2,4-diamine]",–,–,–
150 to 152 °C,–,"Nc1nc(Nc2ccc(F)cc2)nc(-c2ccc(C(F)(F)F)cc2)n1 [Compound 84, N ^2-(4-Fluorophenyl)-6-(4-(trifluoromethyl)phenyl)-1,3,5-triazine-2,4-diamine]",98%,95%,100%
139 to 140 °C,–,"Nc1nc(Nc2ccc(F)cc2)nc(-c2ccc(OC(F)(F)F)cc2)n1 [Compound 91, N ^2-(4-Fluorophenyl)-6-(4-(trifluoromethoxy)phenyl)-1,3,5-triazine-2,4-diamine]",86%,53%,100%
177 to 179 °C,–,"Nc1nc(Nc2ccc(F)cc2)nc(-c2ccc(OCc3ccccc3)cc2)n1 [Compound 111, 6-(4-(Benzyloxy)phenyl)-N^2-(4-fluorophenyl)-1,3,5-triazine-2,4-diamine]",84%,69%,89%
165 to 167 °C,–,"COc1ccccc1Nc1nc(N)nc(-c2cccs2)n1 [Compound 122, N ^2-(2-Methoxyphenyl)-6-(thiophen-2-yl)-1,3,5-triazine-2,4-diamine]",97%,78%,91%
